Test results: ChEMBL document CHEMBL1158060, “Taspine: bioactivity-guided isolation and molecular ligand-target insight of a potent acetylcholinesterase inhibitor from Magnolia x soulangiana” (J Nat Prod, 2006)

How the values were obtained:
Cholinesterase = Cholinesterase (Equus caballus, UniProt P81908)
Description: Inhibition of horse serum BuChE by Ellman's method

Acetylcholinesterase [1] = target: Acetylcholinesterase (Electrophorus electricus, UniProt O42275)
Acetylcholinesterase [2] = target: Acetylcholinesterase (Homo sapiens, UniProt P22303)
Sequence of Acetylcholinesterase (Homo sapiens, UniProt P22303) (P22303 whole entry): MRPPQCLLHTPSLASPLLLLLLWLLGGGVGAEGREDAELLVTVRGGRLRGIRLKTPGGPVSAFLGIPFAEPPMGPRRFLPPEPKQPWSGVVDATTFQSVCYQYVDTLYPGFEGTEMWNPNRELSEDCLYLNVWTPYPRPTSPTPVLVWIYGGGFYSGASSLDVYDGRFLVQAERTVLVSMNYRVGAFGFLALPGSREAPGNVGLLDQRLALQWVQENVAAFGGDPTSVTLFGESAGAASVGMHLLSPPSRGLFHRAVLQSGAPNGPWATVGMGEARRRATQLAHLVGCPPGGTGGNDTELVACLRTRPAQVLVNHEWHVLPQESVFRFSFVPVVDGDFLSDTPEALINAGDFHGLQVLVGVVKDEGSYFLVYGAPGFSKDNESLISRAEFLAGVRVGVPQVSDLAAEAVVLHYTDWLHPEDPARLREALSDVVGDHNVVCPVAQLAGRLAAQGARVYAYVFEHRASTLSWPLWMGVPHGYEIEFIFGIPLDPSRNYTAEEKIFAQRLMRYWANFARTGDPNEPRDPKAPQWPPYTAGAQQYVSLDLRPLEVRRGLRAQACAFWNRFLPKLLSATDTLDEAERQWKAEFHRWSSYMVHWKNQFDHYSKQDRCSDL
Description: Inhibition of human AChE by Ellman's assay

Sequence of Acetylcholinesterase (Electrophorus electricus, UniProt O42275) (O42275 whole entry): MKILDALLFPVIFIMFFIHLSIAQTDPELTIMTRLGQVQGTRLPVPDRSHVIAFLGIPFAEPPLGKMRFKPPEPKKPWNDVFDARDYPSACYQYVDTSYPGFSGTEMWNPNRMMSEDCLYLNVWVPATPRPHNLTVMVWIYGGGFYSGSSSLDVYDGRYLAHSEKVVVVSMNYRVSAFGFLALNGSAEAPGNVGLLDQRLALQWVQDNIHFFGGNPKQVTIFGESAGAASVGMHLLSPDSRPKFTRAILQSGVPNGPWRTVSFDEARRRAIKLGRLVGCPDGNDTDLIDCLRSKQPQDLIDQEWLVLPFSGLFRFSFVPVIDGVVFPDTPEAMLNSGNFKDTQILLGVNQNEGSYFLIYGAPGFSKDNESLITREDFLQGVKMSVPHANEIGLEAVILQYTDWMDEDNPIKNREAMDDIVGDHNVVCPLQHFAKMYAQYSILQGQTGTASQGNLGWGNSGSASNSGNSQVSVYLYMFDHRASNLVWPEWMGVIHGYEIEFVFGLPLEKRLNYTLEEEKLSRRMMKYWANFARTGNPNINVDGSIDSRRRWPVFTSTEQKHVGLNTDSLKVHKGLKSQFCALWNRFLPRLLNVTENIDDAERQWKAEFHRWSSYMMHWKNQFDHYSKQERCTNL
Sequence of Cholinesterase (P81908 whole entry): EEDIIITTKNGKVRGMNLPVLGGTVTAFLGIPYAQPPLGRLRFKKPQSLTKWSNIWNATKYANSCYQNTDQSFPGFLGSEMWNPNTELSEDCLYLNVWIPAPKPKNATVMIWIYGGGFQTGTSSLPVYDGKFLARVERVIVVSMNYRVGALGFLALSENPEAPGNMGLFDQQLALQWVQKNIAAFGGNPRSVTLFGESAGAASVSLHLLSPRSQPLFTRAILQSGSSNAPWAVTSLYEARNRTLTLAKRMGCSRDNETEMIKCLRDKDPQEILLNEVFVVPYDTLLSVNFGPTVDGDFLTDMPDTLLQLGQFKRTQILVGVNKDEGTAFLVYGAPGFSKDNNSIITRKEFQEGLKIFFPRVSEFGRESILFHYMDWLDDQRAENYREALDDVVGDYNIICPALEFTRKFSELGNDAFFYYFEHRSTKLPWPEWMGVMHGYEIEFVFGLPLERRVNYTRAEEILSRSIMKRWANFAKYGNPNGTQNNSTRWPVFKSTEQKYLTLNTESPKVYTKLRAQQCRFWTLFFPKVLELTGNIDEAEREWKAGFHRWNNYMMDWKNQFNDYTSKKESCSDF

Compound | IC50 (Cholinesterase) [µM] | IC50 (Acetylcholinesterase [1]) [µM] | IC50 (Acetylcholinesterase [2]) [µM]
COc1c(O)cc2c3c1-c1ccccc1C[C@H]3NCC2 [(-)-ASIMILOBINE] | > 100 | > 100 | > 100
COc1ccc2c(=O)oc3c(OC)cc(CCN(C)C)c4c(=O)oc1c2c34 [TASPINE] | > 100 | 0.33 | 0.54
